Laboratory results reported in patent US20220305136A1, “ANTI-CTLA4 CONJUGATES” (Ascendis Pharma Oncology Division A/S, priority 2019, published 2022).

How the values were obtained:
[1] = Plasma pharmacokinetics of CTLA-4 mAB in Wistar rats; type: in vivo; conditions: n=3
Procedure: This study was performed in order to investigate the plasma pharmacokinetics of CTLA-4 mAB in Wistar rats following subcutaneous administration of transient CTLA-4 mAB-linker-hydrogel prodrug 29b or following subcutaneous or intravenous administration of free CTLA-4 mAB. Animals (n=3 per group) received either a single SC injection of a 29b (1 mg/kg CTLA-4 mAB equivalents) in the neck region or a single SC injection in the neck region or IV injection in the tail vein of an CTLA-4 mAB formulation (1 mg/kg CTLA-4 mAB). At selected time points, 200 μL blood were collected in L^1-Heparin tubes and processed to plasma by centrifugation at 3,000 g for 10 minutes at 4° C.
CTLA-4 mAB concentrations in rat plasma were determined with a commercial ELISA setup obtained from BioVision Inc. (CA, USA, order number E4384-100). The manufacturer's instructions were followed with minor changes to the protocol. Specifically, the plasma samples were used undiluted (except for samples above the upper limit of quantification which were diluted with blank plasma prior to the measurement) and the sample incubation time was prolonged to 60 minutes.
Calibration standards of CTLA-4 mAB in blank plasma were prepared as follows: thawed L^1-Heparin Wistar rat plasma was homogenized. The free CTLA-4 mAB formulation was spiked into blank plasma at concentrations between 5,000 ng/mL and 50 ng/mL with additional higher and lower anchor points. These solutions were used for the generation of a calibration curve. Calibration curves were analyzed via a 4-parameter logarithmic fit and 1/Y^2 weighted. The determined CTLA-4 mAB plasma concentrations are depicted in Table 1.

MC38 tumor cells [2] = assay: In vivo anti-tumor efficacy, MC38 tumor bearing mice (Example 28); parameters: species or system C57BL/6 mice with the human CTLA-4 gene knocked in; conditions: CTLA-4 mAB 4 x 210 μg intraperitoneal days 0, 4, 8, 12, 29b single 840 μg intratumoral
Procedure: The study was conducted in female C57BL/6 mice with the human CTLA-4 gene knocked into the endogenous CTLA-4 locus with an age of 6-11 weeks at the day of tumor inoculation. This model is also known as a Human Genetically Engineered Mouse Model or HuGEMM. Mice were subcutaneously implanted with 1×10^6 MC38 tumor cells in the right flank. When tumors to be injected were grown to a mean tumor volume of ˜65 mm^3, mice were randomized into treatment cohorts (day 0) and treated with either: 1) a single 50 μL intratumoral injection of control hydrogel 30 or 2) a single 50 μL intratumoral injection of 840 μg of CTLA-4 mAB-linker-hydrogel prodrug 29b or 3) four total 200 μL intraperitoneal doses of 210 μg given on Days 0, 4, 8, and 12 of CTLA-4 mAB. Hydrogels were administered as suspensions in 20 mM succinate, 135 mM NaCl, 0.01% Tween-20, pH 4.0 buffer. Following treatment initiation, anti-tumor efficacy was assessed by determination of tumor volumes at various time points from tumor size measurements with a caliper. Tumor volumes were calculated according to the formula:
Tumor volume=(L×W^2)×0.5 where L is the length of the tumor and W the width (both in mm). Mice were removed from the study once tumors were greater than 3000 mm^3.

MC38 tumor cells [3] = assay: In vivo anti-tumor efficacy, MC38 tumor bearing mice (Example 33); parameters: species or system C57BL/6 mice with the human CTLA4 gene knocked in
Procedure: The study was conducted in female C57BL/6 mice with the human CTLA4 gene knocked into the endogenous CTLA4 locus with an age of 6-11 weeks at the day of tumor inoculation. This model is also known as a Human Genetically Engineered Mouse Model or HuGEMM. Mice were subcutaneously implanted with 1×10^6 MC38 tumor cells in the right flank. When tumors to be injected were grown to a mean tumor volume of ˜65 mm^3, mice were randomized into treatment cohorts (day 0) and treated with either: 1) a single 50 μL intratumoral injection of control hydrogel 30 or 2) four total 200 μL intraperitoneal doses of 18 μg given on days 0, 4, 8, and 12 of free CTLA-4 mAB, or 3) a single 50 μL intratumoral injection of 840 μg of CTLA-4 mAB-linker-hydrogel prodrug 29b or 3) a single 50 μL intratumoral injection of 72 μg of CTLA-4 mAB-linker-hydrogel prodrug 29c. […] Following treatment initiation, anti-tumor efficacy was assessed by determination of tumor volumes at various time points from tumor size measurements with a caliper. Tumor volumes were calculated according to the formula: Tumor volume=(L×W^2)×0.5 where L is the length of the tumor and W the width (both in mm). […] Percent tumor growth inhibition (TGI) was calculated according to the formula: [1−(Mean Tumor Volume in treated animals)/(Mean Tumor Volume in control animals)]*100.

tumor immune cells = assay: Flow cytometric profiling of tumor immune cells; type: in vivo, C57BL/6 mice with the human CTLA4 gene knocked in; conditions: day 7
Procedure: (§1) The study was conducted in female C57BL/6 mice with the human CTLA4 gene knocked into the endogenous CTLA4 locus with an age of 6-11 weeks at the day of tumor inoculation. This model is also known as a Human Genetically Engineered Mouse Model or HuGEMM. Mice were subcutaneously implanted with 1×10^6 MC38 tumor cells in the right flank. When tumors to be injected were grown to a mean tumor volume of ˜65 mm^3, mice were randomized into treatment cohorts (day 0) and treated with either: 1) a single 50 μL intratumoral injection of control hydrogel 30 or 2) four total 200 μL intraperitoneal doses of 18 μg given on days 0, 4, 8, and 12 of free CTLA-4 mAB, or 3) a single 50 μL intratumoral injection of 840 μg of CTLA-4 mAB-linker-hydrogel prodrug 29b or 3) a single 50 μL intratumoral injection of 72 μg of CTLA-4 mAB-linker-hydrogel prodrug 29c. Hydrogels were administered as suspensions in 20 mM succinate, 135 mM NaCl, 0.01% Tween20, pH 4.0 buffer.
Mice were sacrificed 7 days after randomization (D0). Following sacrifice, blood, spleen and tumor were isolated. Spleen samples were dissociated mechanically to generate single suspensions. Tumor samples were enzymatically and mechanically dissociated to generate single cell suspensions. Cell suspensions from spleen and tumor were centrifuged at 300 g for 5 minutes and 2×10^6 cells were used for staining. For whole blood, approximately 100 μL was used for staining. Cells were resuspended in FACS buffer with 1 μg/ml Fc-Block and incubated at 4° C. for 10 minutes in the dark. Surface marker antibody mixtures in FACS buffer were added to each sample and samples were incubated in the dark at 4° C. for 30 minutes. Red blood cell lysis buffer (Bio-gems) was added if needed and cells were further incubated at 4° C. for 10 minutes. Cells were washed twice with FACS buffer then fixed and permeabilized for 30 minutes at room temperature with Fix/Perm buffer (eBioscience). Cells were washed twice in Permeabilization Buffer and stained with intracellular antibodies in Permeabilization buffer for 30 minutes at room temperature. Cells were washed twice in FACS buffer and acquired in the presence of 123count Ebeads (eBioscience). After collection, FACS data was analyzed using FlowJo Version 10.6.1. Compensation was digitally adjusted using single antibody-stained beads, single antibody-stained cells, and fluorescence minus one (FMO) controls. CD4^+ T cells were gated as live, intact CD45+ CD3+ CD4+ events. Tregs were gated as the CD25+ FOXP3+ subset of CD4 T cells. […] The change in the mean percentage of positive cells for indicated populations relative to control treatment was calculated by the formula: mean percentage of positive cells in treated animals—mean percentage of positive cells in control treated animals.

blood immune cells = assay: Flow cytometric profiling of blood immune cells; type: in vivo, C57BL/6 mice with the human CTLA4 gene knocked in; conditions: day 7; doses as E70
Procedure: as §1
(§2) Mice were sacrificed 7 days after randomization (D0). Following sacrifice, blood, spleen and tumor were isolated. Spleen samples were dissociated mechanically to generate single suspensions. Tumor samples were enzymatically and mechanically dissociated to generate single cell suspensions. Cell suspensions from spleen and tumor were centrifuged at 300 g for 5 minutes and 2×10^6 cells were used for staining. For whole blood, approximately 100 μL was used for staining. Cells were resuspended in FACS buffer with 1 μg/ml Fc-Block and incubated at 4° C. for 10 minutes in the dark. Surface marker antibody mixtures in FACS buffer were added to each sample and samples were incubated in the dark at 4° C. for 30 minutes. Red blood cell lysis buffer (Bio-gems) was added if needed and cells were further incubated at 4° C. for 10 minutes. Cells were washed twice with FACS buffer then fixed and permeabilized for 30 minutes at room temperature with Fix/Perm buffer (eBioscience). Cells were washed twice in Permeabilization Buffer and stained with intracellular antibodies in Permeabilization buffer for 30 minutes at room temperature. Cells were washed twice in FACS buffer and acquired in the presence of 123count Ebeads (eBioscience). After collection, FACS data was analyzed using FlowJo Version 10.6.1. Compensation was digitally adjusted using single antibody-stained beads, single antibody-stained cells, and fluorescence minus one (FMO) controls. CD4^+ T cells were gated as live, intact CD45+ CD3+ CD4+ events. Tregs were gated as the CD25+ FOXP3+ subset of CD4 T cells. CD8^+ T cells were gated as live, intact CD45+ CD3+ CD8+ events. Subgates were then defined using the controls mentioned above. The change in the mean percentage of positive cells for indicated populations relative to control treatment was calculated by the formula: mean percentage of positive cells in treated animals—mean percentage of positive cells in control treated animals.

spleen immune cells = assay: Flow cytometric profiling of spleen immune cells; type: in vivo, C57BL/6 mice with the human CTLA4 gene knocked in; conditions: day 7; doses as E70
Procedure: as §1, §2

Substance: CTLA-4 mAB: Monoclonal antibody CTLA-4 mAB (AMO-M6104, CAS No. 477202-00-9) obtained from AbMole Bioscience Inc.
- mean CTLA-4 mAB plasma concentration ([1]; 1 h, 1 mg/kg CTLA-4 mAB (equivalents), subcutaneous, LLOQ 50 ng/mL): 170 ng/mL
- mean CTLA-4 mAB plasma concentration ([1]; 1 h, 1 mg/kg intravenous): 18000 ng/mL
- mean CTLA-4 mAB plasma concentration ([1]; 4 h, 1 mg/kg CTLA-4 mAB (equivalents), subcutaneous, LLOQ 50 ng/mL): 600 ng/mL
- mean CTLA-4 mAB plasma concentration ([1]; 4 h, 1 mg/kg intravenous): 14000 ng/mL
- mean CTLA-4 mAB plasma concentration ([1]; 24 h, 1 mg/kg CTLA-4 mAB (equivalents), subcutaneous): 3700 ng/mL
- mean CTLA-4 mAB plasma concentration ([1]; 24 h, 1 mg/kg intravenous): 9600 ng/mL
- mean CTLA-4 mAB plasma concentration ([1]; 32 h, 1 mg/kg CTLA-4 mAB (equivalents), subcutaneous): 4800 ng/mL
- mean CTLA-4 mAB plasma concentration ([1]; 32 h, 1 mg/kg intravenous): 7500 ng/mL
- mean CTLA-4 mAB plasma concentration ([1]; 48 h, 1 mg/kg CTLA-4 mAB (equivalents), subcutaneous): 6200 ng/mL
- mean CTLA-4 mAB plasma concentration ([1]; 48 h, 1 mg/kg intravenous): 6000 ng/mL
- mean CTLA-4 mAB plasma concentration ([1]; 72 h, 1 mg/kg CTLA-4 mAB (equivalents), subcutaneous): 6900 ng/mL
- mean CTLA-4 mAB plasma concentration ([1]; 72 h, 1 mg/kg intravenous): 4900 ng/mL
- mean CTLA-4 mAB plasma concentration ([1]; 96 h, 1 mg/kg CTLA-4 mAB (equivalents), subcutaneous): 6100 ng/mL
- mean CTLA-4 mAB plasma concentration ([1]; 96 h, 1 mg/kg intravenous): 4000 ng/mL
- mean CTLA-4 mAB plasma concentration ([1]; 168 h, 1 mg/kg CTLA-4 mAB (equivalents), subcutaneous): 5700 ng/mL
- mean CTLA-4 mAB plasma concentration ([1]; 168 h, 1 mg/kg intravenous): 3100 ng/mL
- Mean Tumor Volume (mm3) Day 20 (MC38 tumor cells [2]): 60.5 mm3
- Percent Tumor Growth Inhibition (MC38 tumor cells [3]; day 20, vs control hydrogel 30, doses as E66): 97.3%
- Mean Tumor Volume (mm3) (MC38 tumor cells [3]; day 20, CTLA-4 mAB 4 x 18 μg intraperitoneal days 0, 4, 8, 12, 29b single 840 μg intratumoral, 29c single 72 μg intratumoral): 57.1 mm3
- Increase in Percentage Positive from control hydrogel 30: Tumor CD44++ CD62L− of CD4s (tumor immune cells; CTLA-4 mAB 18 μg doses IP, 29b 840 μg IT, 29c 72 μg IT): 10.73%
- Increase in Percentage Positive from control hydrogel 30: Tumor CD44++ CD62L− of CD8s (tumor immune cells; doses as E70): 6.51%
- Increase in Percentage Positive from control hydrogel 30: Tumor CD69+ of CD4s (tumor immune cells; doses as E70): 2.37%
- Increase in Percentage Positive from control hydrogel 30: Tumor ICOS+ of CD4s (tumor immune cells; doses as E70): 13.77%
- Increase in Percentage Positive from control hydrogel 30: Blood CD4 of T (blood immune cells): 0.53%
- Increase in Percentage Positive from control hydrogel 30: Blood CD25+ of CD4 (blood immune cells): 2.88%
- Increase in Percentage Positive from control hydrogel 30: Blood CD44++ CD62L− of CD4s (blood immune cells): 15.28%
- Increase in Percentage Positive from control hydrogel 30: Blood CD69+ of CD4 (blood immune cells): 3.35%
- Increase in Percentage Positive from control hydrogel 30: Blood CD69+ of Treg (blood immune cells): 3.69%
- Increase in Percentage Positive from control hydrogel 30: Blood ICOS+ of CD4s (blood immune cells): 18.80%
- Increase in Percentage Positive from control hydrogel 30: Blood ICOS+ of CD8s (blood immune cells): 9.26%
- Increase in Percentage Positive from control hydrogel 30: Blood Ki67+ of CD4s (blood immune cells): 14.64%
- Increase in Percentage Positive from control hydrogel 30: Blood Treg of CD4 (blood immune cells): 2.22%
- Increase in Percentage Positive from control hydrogel 30: Spleen CD4 of T (spleen immune cells): 4.90%
- Increase in Percentage Positive from control hydrogel 30: Spleen CD25+ of CD4 (spleen immune cells): 4.38%
- Increase in Percentage Positive from control hydrogel 30: Spleen CD69+ of CD4 (spleen immune cells): 8.33%
- Increase in Percentage Positive from control hydrogel 30: Spleen CD69+ of Treg (spleen immune cells): 9.17%
- Increase in Percentage Positive from control hydrogel 30: Spleen ICOS+ of CD8s (spleen immune cells): 3.18%
- Increase in Percentage Positive from control hydrogel 30: Spleen Ki67+ of CD4s (spleen immune cells): 11.75%
- Increase in Percentage Positive from control hydrogel 30: Spleen Ki67+ of Tregs (spleen immune cells): 16.97%
- Increase in Percentage Positive from control hydrogel 30: Spleen Treg of CD4 (spleen immune cells): 6.64%
